Experimental data as given in ChEMBL document CHEMBL1143441, “New classes of Gram-positive selective antibacterials: inhibitors of MRSA and surrogates of the causative agents of anthrax and tuberculosis” (2008).
In brackets after ≈: the same amount, converted by molar mass.

Tested on: Mycobacterium tuberculosis
Experiment: Antimicrobial activity against Mycobacterium bovis BCG by NCCLS M7-A6 method
Format: functional
Settings: variant bovis BCG

Structure (SMILES): COc1cc(O)cc(/C=C/c2ccccc2)c1 [PINOSYLVIN METHYL ETHER]
- MIC: 26 µg/mL (≈ 115 µM)
